target: PDE4D3 (Homo sapiens, UniProt Q08499)
Sequence (Q08499 1-673 isoform Q08499-2): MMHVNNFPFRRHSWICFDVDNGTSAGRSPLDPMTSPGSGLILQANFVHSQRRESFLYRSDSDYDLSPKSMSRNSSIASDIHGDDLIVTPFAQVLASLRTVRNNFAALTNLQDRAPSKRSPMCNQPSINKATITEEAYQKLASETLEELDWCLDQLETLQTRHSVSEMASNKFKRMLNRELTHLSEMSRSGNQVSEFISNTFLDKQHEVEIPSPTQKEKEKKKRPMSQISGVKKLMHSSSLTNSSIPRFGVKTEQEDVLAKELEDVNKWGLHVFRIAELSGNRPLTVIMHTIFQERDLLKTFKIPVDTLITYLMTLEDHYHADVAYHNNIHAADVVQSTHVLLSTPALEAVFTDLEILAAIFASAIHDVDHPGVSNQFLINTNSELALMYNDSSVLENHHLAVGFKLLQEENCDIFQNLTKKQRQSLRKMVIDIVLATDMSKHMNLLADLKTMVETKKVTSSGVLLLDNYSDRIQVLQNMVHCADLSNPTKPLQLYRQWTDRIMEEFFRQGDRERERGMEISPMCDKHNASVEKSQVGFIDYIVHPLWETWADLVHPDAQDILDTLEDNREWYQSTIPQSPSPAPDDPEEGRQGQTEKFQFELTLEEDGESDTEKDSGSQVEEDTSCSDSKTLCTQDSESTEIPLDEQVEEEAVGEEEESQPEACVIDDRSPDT

| EC50 | SMILES |
| --- | --- |
| 100 to 1000 nM | COc1ncc(Cc2cnc(C(N)=O)nc2)cc1-c1ccnc(OC(F)F)c1 [Example 120, 5-({5-[2-(Difluoromethoxy)pyridin-4-yl]-6-methoxypyridin-3-yl}methyl)pyrimidine-2-carboxamide] |
| 1000 to 10000 nM | COc1ncnn1Cc1cnc(OC(F)F)c(-c2cccc(Cl)c2)c1 [Example 215, 3-(3-Chlorophenyl)-2-(difluoromethoxy)-5-[(5-methoxy-1H-1,2,4-triazol-1-yl)methyl]pyridine] |
| 100 to 1000 nM | COc1ncc(Cn2cnc(N)n2)cc1-c1cccc(Cl)c1 [Example 218, 1-{[5-(3-Chlorophenyl)-6-methoxypyridin-3-yl]methyl}-1H-1,2,4-triazol-3-amine] |
| 1000 to 10000 nM | CNC(c1ccc(F)cc1)c1cnc(OC)c(-c2cccc(Cl)c2)c1 (stereo not shown) [Example 17, {[5-(3-Chlorophenyl)-6-methoxypyridin-3-yl](4-fluorophenyl)methyl}(methyl)amine] |
| 1000 to 10000 nM | COc1ncc(Cn2cnc(C(F)(F)F)c2)cc1-c1cccc(Cl)c1 [Example 149, 3-(3-Chlorophenyl)-2-methoxy-5-{[4-(trifluoromethyl)-1H-imidazol-1-yl]methyl}pyridine] |
| < 100 nM | COc1ncc(Cc2ccc(C(N)=O)cc2)cc1-c1cccc(Cl)c1 [Example 27, 4-{[5-(3-Chlorophenyl)-6-methoxypyridin-3-yl]methyl}benzamide] |
| < 100 nM | COc1ncc(Cc2cnn(C)c2)cc1-c1cccc(Cl)c1 [Example 79, 3-(3-Chlorophenyl)-2-methoxy-5-[(1-methyl-1H-pyrazol-4-yl)methyl]pyridine] |
| 100 to 1000 nM | COc1ncc(Cc2ccc(CN)cc2)cc1-c1cccc(Cl)c1 [Example 59, (4-{[5-(3-Chlorophenyl)-6-methoxypyridin-3-yl]methyl}phenyl)methanamine] |
| 1000 to 10000 nM | CCOc1ncc(Cn2cnc(C3CC3)n2)nc1-c1cccc(OC(F)F)c1 [Example 186, 5-[(3-Cyclopropyl-1H-1,2,4-triazol-1-yl)methyl]-3-[3-(difluoromethoxy)phenyl]-2-ethoxypyrazine] |
| 100 to 1000 nM | COc1ncc(Cn2cc([N+](=O)[O-])cn2)cc1-c1cccc(Cl)c1 [Example 180, 3-(3-Chlorophenyl)-2-methoxy-5-[(4-nitro-1H-pyrazol-1-yl)methyl]pyridine] |
| 1000 to 10000 nM | COc1ncc(Cn2cnc(C3CC3)n2)nc1-c1cccc(Cl)c1 [Example 133, 3-(3-Chlorophenyl)-5-[(3-cyclopropyl-1H-1,2,4-triazol-1-yl)methyl]-2-methoxypyrazine] |
| 100 to 1000 nM | CCOc1ncc(Cn2ncnc2C(F)(F)F)nc1-c1cccc(OC(F)F)c1 [Example 188, 3-[3-(Difluoromethoxy)phenyl]-2-ethoxy-5-{[5-(trifluoromethyl)-1H-1,2,4-triazol-1-yl]methyl}pyrazine] |
| < 100 nM | COc1ncc(Cc2cnc(N)nc2)cc1-c1cccc(F)c1 [Example 38, 5-{[5-(3-Fluorophenyl)-6-methoxypyridin-3-yl]methyl}pyrimidin-2-amine] |
| 100 to 1000 nM | CC(C)(O)c1ccc(Cc2cnc(OC(F)F)c(-c3cccc(Cl)c3)c2)cn1 [Example 252, 2-(5-{[5-(3-Chlorophenyl)-6-(difluoromethoxy)pyridin-3-yl]methyl}pyridin-2-yl)propan-2-ol] |
| 100 to 1000 nM | CNc1ncn(Cc2cnc(OC(F)F)c(-c3cccc(Cl)c3)c2)n1 [Example 238, 1-{[5-(3-Chlorophenyl)-6-(difluoromethoxy)pyridin-3-yl]methyl}-N-methyl 1H-1,2,4-triazol-3-amine] |
| 100 to 1000 nM | COc1ncc(Cn2cnc(N)n2)cc1-c1cccc(C#N)c1 [Example 223, 3-{5-[(3-Amino-1H-1,2,4-triazol-1-yl)methyl]-2-methoxypyridin-3-yl}benzonitrile] |
| 100 to 1000 nM | OCc1ncn(Cc2cnc(OC(F)F)c(-c3ccnc(OC(F)F)c3)c2)n1 [Example 207, (1-{[6-(Difluoromethoxy)-5-[2-(difluoromethoxy)pyridin-4-yl]pyridin-3-yl]methyl}-1H-1,2,4-triazol-3-yl)methanol] |
| 1000 to 10000 nM | COc1ncc(Cc2cnc(C#N)nc2)cc1-c1cccc(F)c1 [Example 39, 5-{[5-(3-Fluorophenyl)-6-methoxypyridin-3-yl]methyl}pyrimidine-2-carbonitrile] |
| < 100 nM | Nc1ncc(Cc2cnc(OC(F)F)c(-c3cccc(Cl)c3)c2)s1 [Example 36, 5-{[5-(3-Chlorophenyl)-6-(difluoromethoxy)pyridin-3-yl]methyl}-1,3-thiazol-2-amine] |
| 1000 to 10000 nM | COc1ncc(Cn2cnc(C(N)=O)n2)cc1-c1cccc(Cl)c1 [Example 241, 1-{[5-(3-Chlorophenyl)-6-methoxypyridin-3-yl]methyl}-1H-1,2,4-triazole-3-carboxamide] |
| 100 to 1000 nM | CCOc1ncc(Cn2cnc(C(F)(F)F)n2)cc1-c1cccc(Cl)c1 [Example 152, 3-(3-Chlorophenyl)-2-ethoxy-5-{[3-(trifluoromethyl)-1H-1,2,4-triazol-1-yl]methyl}pyridine] |
| 100 to 1000 nM | CCOc1cccc(-c2cc(Cn3cnc(N)n3)cnc2OC)c1 [Example 224, 1-{[5-(3-Ethoxyphenyl)-6-methoxypyridin-3-yl]methyl}-1H-1,2,4-triazol-3-amine] |

| EC50 | SMILES |
| --- | --- |
| 1000 to 10000 nM | N#Cc1ncn(Cc2cnc(OC(F)F)c(-c3cccc(Cl)c3)c2)n1 [Example 156, 1-{[5-(3-Chlorophenyl)-6-(difluoromethoxy)pyridin-3-yl]methyl}-1H-1,2,4-triazole-3-carbonitrile] |
| 1000 to 10000 nM | NC(=O)c1cn(Cc2cnc(OC(F)F)c(-c3cccc(Cl)c3)c2)cn1 [Example 198, 1-{[5-(3-Chlorophenyl)-6-(difluoromethoxy)pyridin-3-yl]methyl}-1H-imidazole-4-carboxamide] |
| 100 to 1000 nM | Cc1cccc(-c2cc(Cn3cncn3)cnc2OC(F)F)c1 [Example 12, 2-(Difluoromethoxy)-3-(3-methylphenyl)-5-(1H-1,2,4-triazol-1-ylmethyl)pyridine] |
| 100 to 1000 nM | COc1ncc(Cc2ccc(F)cc2)cc1-c1cccc(Cl)c1 [Example 88, 3-(3-Chlorophenyl)-5-[(4-fluorophenyl)methyl]-2-methoxypyridine] |
| < 100 nM | COc1cc(-c2cc(Cc3cnc(N)nc3)cnc2OC(F)F)ccn1 [Example 46, 5-{[6-(Difluoromethoxy)-5-(2-methoxypyridin-4-yl)pyridin-3-yl]methyl}pyrimidin-2-amine] |
| 100 to 1000 nM | COc1ncc(Cc2cnc(C)nc2)cc1-c1cccc(Cl)c1 [Example 75, 5-{[5-(3-Chlorophenyl)-6-methoxypyridin-3-yl]methyl}-2-methylpyrimidine] |
| 100 to 1000 nM | CCOc1cccc(-c2cc(Cn3cnc(CF)n3)cnc2OC(F)F)c1 [Example 255, 2-(Difluoromethoxy)-3-(3-ethoxyphenyl)-5-{[3-(fluoromethyl)-1H-1,2,4-triazol-1-yl]methyl}pyridine] |
| 1000 to 10000 nM | OCc1cncn1Cc1cnc(OC(F)F)c(-c2cccc(Cl)c2)c1 [Example 273, (1-{[5-(3-Chlorophenyl)-6-(difluoromethoxy)pyridin-3-yl]methyl}-1H-imidazol-5-yl)methanol] |
| 1000 to 10000 nM | CCOc1ncc(Cn2ncnc2C(=O)OC)nc1-c1cccc(OC(F)F)c1 [Example 192, Methyl 1-((6-(3-(difluoromethoxy)phenyl)-5-ethoxypyrazin-2-yl)methyl)-1H-1,2,4-triazole-5-carboxylate] |
| 100 to 1000 nM | COc1ncc(Cc2cnc(N(C)C)nc2)cc1-c1cccc(Cl)c1 [Example 83, 5-{[5-(3-Chlorophenyl)-6-methoxypyridin-3-yl]methyl}-N,N-dimethylpyrimidin-2-amine] |
| 100 to 1000 nM | COc1ncc(Cc2ccc(C(C)(C)O)nc2)cc1-c1cccc(Cl)c1 [Example 251, 2-(5-{[5-(3-Chlorophenyl)-6-methoxypyridin-3-yl]methyl}pyridin-2-yl)propan-2-ol] |
| < 100 nM | COc1ncc(Cc2cnc(NC3CC3)nc2)cc1-c1cccc(Cl)c1 [Example 82, 5-{[5-(3-Chlorophenyl)-6-methoxypyridin-3-yl]methyl}-N-cyclopropylpyrimidin-2-amine] |
| 100 to 1000 nM | CN(C)c1ncn(Cc2cnc(OC(F)F)c(-c3cccc(Cl)c3)c2)n1 [Example 239, 1-{[5-(3-Chlorophenyl)-6-(difluoromethoxy)pyridin-3-yl]methyl}-N,N-dimethyl-1H-1,2,4-triazol-3-amine] |
| < 100 nM | COc1ncc(Cn2cncn2)cc1-c1cccc(Cl)c1 [Example 134, 3-(3-Chlorophenyl)-2-methoxy-5-(1H-1,2,4-triazol-1-ylmethyl)pyridine] |
| 1000 to 10000 nM | CCOc1ncc(Cn2cnc(C(=O)OC)n2)nc1-c1cccc(Cl)c1 [Example 197, Methyl 1-{[6-(3-chlorophenyl)-5-ethoxypyrazin-2-yl]methyl}-1H-1,2,4-triazole-3-carboxylate] |
| < 100 nM | Nc1ccc(Cc2cnc(OC(F)F)c(-c3cccc(Cl)c3)c2)cn1 [Example 33, 5-{[5-(3-Chlorophenyl)-6-(difluoromethoxy)pyridin-3-yl]methyl}pyridin-2-amine] |
| 100 to 1000 nM | FC(F)Oc1ncc(Cc2ccccn2)cc1-c1cccc(Cl)c1 [Example 109, 3-(3-Chlorophenyl)-2-(difluoromethoxy)-5-(pyridin-2-ylmethyl)pyridine] |
| 1000 to 10000 nM | NCc1ncn(Cc2cnc(OC(F)F)c(-c3cccc(Cl)c3)c2)n1 [Example 240, (1-{[5-(3-Chlorophenyl)-6-(difluoromethoxy)pyridin-3-yl]methyl}-1H-1,2,4-triazol-3-yl)methanamine] |
| 100 to 1000 nM | FC(F)Oc1ncc(Cn2cnc(C(F)F)n2)cc1-c1cccc(Cl)c1 [Example 259, 3-(3-Chlorophenyl)-2-(difluoromethoxy)-5-{[3-(difluoromethyl)-1H-1,2,4-triazol-1-yl]methyl}pyridine] |
| 100 to 1000 nM | CCOc1ncc(Cn2cc(CO)nn2)nc1-c1cccc(Cl)c1 [Example 268, (1-{[6-(3-Chlorophenyl)-5-ethoxypyrazin-2-yl]methyl}-1H-1,2,3-triazol-4-yl)methanol] |
| < 100 nM | COc1ncc(Cc2cnc(OC)c(-c3cccc(Cl)c3)n2)cn1 [Example 55, 3-(3-Chlorophenyl)-2-methoxy-5-[(2-methoxypyrimidin-5-yl)methyl]pyrazine] |

— patent US9120770B2, “Substituted pyridine and pyrazine compounds as PDE4 inhibitors” (DART NEUROSCIENCE (CAYMAN) LTD., priority 2013, dated 2015)
